Tests used:
Experiment in all cases: relative viability (nuclei count vs DMSO), 5 days (fraction); higher = more cells survive
FH535 = compound: CC1=C(C=CC(=C1)[N+](=O)[O-])NS(=O)(=O)C2=C(C=CC(=C2)Cl)Cl [FH535]
Summary of the method: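 Nuclei counted with MetaXpress define viability as the ratio of treated to vehicle wells, given as a median across plates. The lung cancer cell lines were in 1536-well plates, pinned with five √10-spaced library-drug doses and imaged at 4× after 5 days and Hoechst staining. Plates passed with control CV below 25% and at least one doubling.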

FH535 + Bortezomib = compound: CC1=C(C=CC(=C1)[N+](=O)[O-])NS(=O)(=O)C2=C(C=CC(=C2)Cl)Cl [FH535] + CC(C)C[C@H](NC(=O)[C@H](Cc1ccccc1)NC(=O)c1cnccn1)B(O)O [Bortezomib] (partner 0.002 µM)
Summary of the method: (§1)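 After 5 days of treatment, lung cancer cells in 1536-well plates were fixed and stained in a single step (final 0.05% Triton X-100, 1% formaldehyde, 1 ug/ml Hoechst) and their nuclei counted on 4× images. Treatment had been applied by pin tool the day after seeding as one drug alone or as a fixed anchor-drug dose with five library-drug doses (not always all listed) in √10 steps. Relative viability is the nuclei count of treated wells divided by that of vehicle wells, and values are medians of duplicate plates.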

FH535 + Navitoclax = compound: CC1=C(C=CC(=C1)[N+](=O)[O-])NS(=O)(=O)C2=C(C=CC(=C2)Cl)Cl [FH535] + CC1(C)CCC(c2ccc(Cl)cc2)=C(CN2CCN(c3ccc(C(=O)NS(=O)(=O)c4ccc(N[C@H](CCN5CCOCC5)CSc5ccccc5)c(S(=O)(=O)C(F)(F)F)c4)cc3)CC2)C1 [Navitoclax] (partner 0.5 µM)
Summary of the method: as §1

FH535 + Foretinib = compound: CC1=C(C=CC(=C1)[N+](=O)[O-])NS(=O)(=O)C2=C(C=CC(=C2)Cl)Cl [FH535] + COc1cc2c(Oc3ccc(NC(=O)C4(C(=O)Nc5ccc(F)cc5)CC4)cc3F)ccnc2cc1OCCCN1CCOCC1 [Foretinib] (partner 0.25 µM)
Summary of the method: as §1

FH535 + Lapatinib = compound: CC1=C(C=CC(=C1)[N+](=O)[O-])NS(=O)(=O)C2=C(C=CC(=C2)Cl)Cl [FH535] + CS(=O)(=O)CCNCc1ccc(-c2ccc3ncnc(Nc4ccc(OCc5cccc(F)c5)c(Cl)c4)c3c2)o1 [Lapatinib] (partner 2 µM)
Summary of the method: as §1

FH535 + Pictilisib = compound: CC1=C(C=CC(=C1)[N+](=O)[O-])NS(=O)(=O)C2=C(C=CC(=C2)Cl)Cl [FH535] + CS(=O)(=O)N1CCN(Cc2cc3nc(-c4cccc5[nH]ncc45)nc(N4CCOCC4)c3s2)CC1 [Pictilisib] (partner 1 µM)
Summary of the method: as §1

FH535 + Crizotinib = compound: CC1=C(C=CC(=C1)[N+](=O)[O-])NS(=O)(=O)C2=C(C=CC(=C2)Cl)Cl [FH535] + C[C@@H](Oc1cc(-c2cnn(C3CCNCC3)c2)cnc1N)c1c(Cl)ccc(F)c1Cl [Crizotinib] (partner 1 µM)
Summary of the method: as §1

FH535 + Linsitinib = compound: CC1=C(C=CC(=C1)[N+](=O)[O-])NS(=O)(=O)C2=C(C=CC(=C2)Cl)Cl [FH535] + C[C@]1(O)C[C@@H](c2nc(-c3ccc4ccc(-c5ccccc5)nc4c3)c3c(N)nccn32)C1 [Linsitinib] (partner 1 µM)
Summary of the method: as §1

FH535 + Alpelisib = compound: CC1=C(C=CC(=C1)[N+](=O)[O-])NS(=O)(=O)C2=C(C=CC(=C2)Cl)Cl [FH535] + Cc1nc(NC(=O)N2CCC[C@H]2C(N)=O)sc1-c1ccnc(C(C)(C)C(F)(F)F)c1 [Alpelisib] (partner 2 µM)
Summary of the method: as §1

FH535 + Olaparib = compound: CC1=C(C=CC(=C1)[N+](=O)[O-])NS(=O)(=O)C2=C(C=CC(=C2)Cl)Cl [FH535] + O=C(c1cc(Cc2n[nH]c(=O)c3ccccc23)ccc1F)N1CCN(C(=O)C2CC2)CC1 [Olaparib] (partner 8 µM)
Summary of the method: as §1

Work on Calu-6 yielded a relative viability (FH535; 0.04 µM) of 0.938, a relative viability (FH535; 0.1265 µM) of 1.05 and a relative viability (FH535; 0.4 µM) of 0.956. For the same cell line, the relative viability (FH535; 1.265 µM) was 0.792, the relative viability (FH535 + Bortezomib; first compound 0.04 µM) was 0.908 and the relative viability (FH535 + Bortezomib; first compound 0.1265 µM) was 1.03. The relative viability (FH535 + Bortezomib; first compound 0.4 µM) was 0.997, the relative viability (FH535 + Bortezomib; first compound 1.265 µM) was 0.772 and the relative viability (FH535 + Navitoclax; first compound 0.04 µM) was 0.912. The relative viability (FH535 + Navitoclax; first compound 0.1265 µM) was 0.849, the relative viability (FH535 + Navitoclax; first compound 0.4 µM) was 0.772 and the relative viability (FH535 + Navitoclax; first compound 1.265 µM) was 0.547. It also gave a relative viability (FH535 + Foretinib; first compound 0.04 µM) of 0.815, a relative viability (FH535 + Foretinib; first compound 0.1265 µM) of 0.83 and a relative viability (FH535 + Foretinib; first compound 0.4 µM) of 0.877. It also gave a relative viability (FH535 + Foretinib; first compound 1.265 µM) of 0.777, a relative viability (FH535 + Lapatinib; first compound 0.04 µM) of 1.12 and a relative viability (FH535 + Lapatinib; first compound 0.1265 µM) of 1.14. It also gave a relative viability (FH535 + Lapatinib; first compound 0.4 µM) of 1, a relative viability (FH535 + Lapatinib; first compound 1.265 µM) of 0.76 and a relative viability (FH535 + Pictilisib; first compound 0.04 µM) of 1.02. For the same cell line, the relative viability (FH535 + Pictilisib; first compound 0.1265 µM) was 0.911, the relative viability (FH535 + Pictilisib; first compound 0.4 µM) was 0.848 and the relative viability (FH535 + Pictilisib; first compound 1.265 µM) was 0.748. For the same cell line, the relative viability (FH535 + Crizotinib; first compound 0.04 µM) was 0.797, the relative viability (FH535 + Crizotinib; first compound 0.1265 µM) was 0.814 and the relative viability (FH535 + Crizotinib; first compound 0.4 µM) was 0.783. For the same cell line, the relative viability (FH535 + Crizotinib; first compound 1.265 µM) was 0.601, the relative viability (FH535 + Linsitinib; first compound 0.04 µM) was 0.972 and the relative viability (FH535 + Linsitinib; first compound 0.1265 µM) was 1.04. It also gave a relative viability (FH535 + Linsitinib; first compound 0.4 µM) of 1, a relative viability (FH535 + Linsitinib; first compound 1.265 µM) of 0.814 and a relative viability (FH535 + Alpelisib; first compound 0.04 µM) of 1.07. For the same cell line, the relative viability (FH535 + Alpelisib; first compound 0.1265 µM) was 0.982, the relative viability (FH535 + Alpelisib; first compound 0.4 µM) was 0.866 and the relative viability (FH535 + Alpelisib; first compound 1.265 µM) was 0.87. For the same cell line, the relative viability (FH535 + Olaparib; first compound 0.04 µM) was 0.583, the relative viability (FH535 + Olaparib; first compound 0.1265 µM) was 0.594 and the relative viability (FH535 + Olaparib; first compound 0.4 µM) was 0.532. The relative viability (FH535 + Olaparib; first compound 1.265 µM) was 0.507.
EBC-1 showed a relative viability (FH535; 0.04 µM) of 0.924, a relative viability (FH535; 0.1265 µM) of 0.983 and a relative viability (FH535; 0.4 µM) of 0.989. The relative viability (FH535; 1.265 µM) was 0.815, the relative viability (FH535 + Bortezomib; first compound 0.04 µM) was 0.622 and the relative viability (FH535 + Bortezomib; first compound 0.1265 µM) was 0.638. The relative viability (FH535 + Bortezomib; first compound 0.4 µM) was 0.585, the relative viability (FH535 + Bortezomib; first compound 1.265 µM) was 0.449 and the relative viability (FH535 + Navitoclax; first compound 0.04 µM) was 0.364. The relative viability (FH535 + Navitoclax; first compound 0.1265 µM) was 0.391, the relative viability (FH535 + Navitoclax; first compound 0.4 µM) was 0.491 and the relative viability (FH535 + Navitoclax; first compound 1.265 µM) was 0.416. The relative viability (FH535 + Foretinib; first compound 0.04 µM) was 0.114, the relative viability (FH535 + Foretinib; first compound 0.4 µM) was 0.0911 and the relative viability (FH535 + Foretinib; first compound 1.265 µM) was 0.101. The relative viability (FH535 + Lapatinib; first compound 0.04 µM) was 0.237, the relative viability (FH535 + Lapatinib; first compound 0.1265 µM) was 0.209 and the relative viability (FH535 + Lapatinib; first compound 0.4 µM) was 0.196. The relative viability (FH535 + Lapatinib; first compound 1.265 µM) was 0.151, the relative viability (FH535 + Pictilisib; first compound 0.04 µM) was 0.44 and the relative viability (FH535 + Pictilisib; first compound 0.1265 µM) was 0.289. For the same cell line, the relative viability (FH535 + Pictilisib; first compound 0.4 µM) was 0.402, the relative viability (FH535 + Pictilisib; first compound 1.265 µM) was 0.383 and the relative viability (FH535 + Crizotinib; first compound 0.04 µM) was 0.178. It also gave a relative viability (FH535 + Crizotinib; first compound 0.1265 µM) of 0.182, a relative viability (FH535 + Crizotinib; first compound 0.4 µM) of 0.192 and a relative viability (FH535 + Crizotinib; first compound 1.265 µM) of 0.178. It also gave a relative viability (FH535 + Linsitinib; first compound 0.04 µM) of 0.854, a relative viability (FH535 + Linsitinib; first compound 0.1265 µM) of 0.899 and a relative viability (FH535 + Linsitinib; first compound 0.4 µM) of 0.91. It also gave a relative viability (FH535 + Linsitinib; first compound 1.265 µM) of 0.646, a relative viability (FH535 + Alpelisib; first compound 0.04 µM) of 0.737 and a relative viability (FH535 + Alpelisib; first compound 0.1265 µM) of 0.82. The relative viability (FH535 + Alpelisib; first compound 0.4 µM) was 0.868, the relative viability (FH535 + Alpelisib; first compound 1.265 µM) was 0.816 and the relative viability (FH535 + Olaparib; first compound 0.04 µM) was 0.675. It also gave a relative viability (FH535 + Olaparib; first compound 0.1265 µM) of 0.657, a relative viability (FH535 + Olaparib; first compound 0.4 µM) of 0.712 and a relative viability (FH535 + Olaparib; first compound 1.265 µM) of 0.566.
Work on NCI-H1299 yielded a relative viability (FH535; 0.04 µM) of 1.01, a relative viability (FH535; 0.1265 µM) of 1.01 and a relative viability (FH535; 0.4 µM) of 1.02. The relative viability (FH535; 1.265 µM) was 0.932, the relative viability (FH535 + Bortezomib; first compound 0.04 µM) was 1.03 and the relative viability (FH535 + Bortezomib; first compound 0.1265 µM) was 1.03. The relative viability (FH535 + Bortezomib; first compound 0.4 µM) was 1.07, the relative viability (FH535 + Bortezomib; first compound 1.265 µM) was 0.809 and the relative viability (FH535 + Navitoclax; first compound 0.04 µM) was 1.04. It also gave a relative viability (FH535 + Navitoclax; first compound 0.1265 µM) of 1.07, a relative viability (FH535 + Navitoclax; first compound 0.4 µM) of 1.08 and a relative viability (FH535 + Navitoclax; first compound 1.265 µM) of 0.954. It also gave a relative viability (FH535 + Foretinib; first compound 0.04 µM) of 1.12, a relative viability (FH535 + Foretinib; first compound 0.1265 µM) of 1.07 and a relative viability (FH535 + Foretinib; first compound 0.4 µM) of 1.12. It also gave a relative viability (FH535 + Foretinib; first compound 1.265 µM) of 1.03, a relative viability (FH535 + Lapatinib; first compound 0.04 µM) of 0.979 and a relative viability (FH535 + Lapatinib; first compound 0.1265 µM) of 0.947. The relative viability (FH535 + Lapatinib; first compound 0.4 µM) was 0.963, the relative viability (FH535 + Lapatinib; first compound 1.265 µM) was 0.76 and the relative viability (FH535 + Pictilisib; first compound 0.04 µM) was 0.736. For the same cell line, the relative viability (FH535 + Pictilisib; first compound 0.1265 µM) was 0.8, the relative viability (FH535 + Pictilisib; first compound 0.4 µM) was 0.772 and the relative viability (FH535 + Pictilisib; first compound 1.265 µM) was 0.712. For the same cell line, the relative viability (FH535 + Crizotinib; first compound 0.04 µM) was 1, the relative viability (FH535 + Crizotinib; first compound 0.1265 µM) was 0.932 and the relative viability (FH535 + Crizotinib; first compound 0.4 µM) was 0.966. The relative viability (FH535 + Crizotinib; first compound 1.265 µM) was 0.876, the relative viability (FH535 + Linsitinib; first compound 0.04 µM) was 0.98 and the relative viability (FH535 + Linsitinib; first compound 0.1265 µM) was 0.978. The relative viability (FH535 + Linsitinib; first compound 0.4 µM) was 0.957, the relative viability (FH535 + Linsitinib; first compound 1.265 µM) was 0.927 and the relative viability (FH535 + Alpelisib; first compound 0.04 µM) was 1.05. The relative viability (FH535 + Alpelisib; first compound 0.1265 µM) was 0.983, the relative viability (FH535 + Alpelisib; first compound 0.4 µM) was 1.05 and the relative viability (FH535 + Alpelisib; first compound 1.265 µM) was 1.07. For the same cell line, the relative viability (FH535 + Olaparib; first compound 0.04 µM) was 1.01, the relative viability (FH535 + Olaparib; first compound 0.1265 µM) was 1.03 and the relative viability (FH535 + Olaparib; first compound 0.4 µM) was 0.973. It also gave a relative viability (FH535 + Olaparib; first compound 1.265 µM) of 0.777.
